Tests used:
[1] = test system: HEK293T cells deficient for VASH1 and VASH2; conditions: Nieuwenhuis et al., 2017; cited from earlier work
SVBP-VASH2 complex = SVBP-VASH2 complex (Homo sapiens, UniProt Q86V25); assay: Detyrosination assay using tubulin purified from Sf9 cells and recombinant SVBP-VASH2 complex; conditions: 0.1 μM and 10 μM; 15 min at 37° C.; microtubules from Sf9 tubulin; western blot
SVBP-VASH2 complex, sequence (Q86V25 whole entry): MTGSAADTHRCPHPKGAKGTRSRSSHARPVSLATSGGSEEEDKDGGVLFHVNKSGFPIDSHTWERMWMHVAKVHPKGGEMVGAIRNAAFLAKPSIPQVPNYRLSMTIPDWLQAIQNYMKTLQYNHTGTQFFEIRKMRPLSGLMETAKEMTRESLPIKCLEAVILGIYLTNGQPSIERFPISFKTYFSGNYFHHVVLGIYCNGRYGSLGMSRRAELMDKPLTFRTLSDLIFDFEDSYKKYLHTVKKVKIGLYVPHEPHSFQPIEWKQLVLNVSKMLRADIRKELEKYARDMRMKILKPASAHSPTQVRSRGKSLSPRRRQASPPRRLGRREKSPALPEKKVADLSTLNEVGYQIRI
SVBP-VASH2 complex, sequence (Q8N300 whole entry partner): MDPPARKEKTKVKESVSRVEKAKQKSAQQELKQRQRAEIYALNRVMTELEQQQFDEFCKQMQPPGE
Protocol: FIG. 17: Detyrosination assay performed using tubulin purified from Sf9 cells and recombinant SVBP-VASH2 complex in absence or presence of putative inhibitors of detyrosinase. […] FIG. 17b: Western blot. FIG. 17c: Representation of relative optical density (detyrosination/tubulin).
A negative control sample consisting of the tubulin in the reaction buffer in absence of the detyrosinase (SVBP-VASH2 complex) was also analysed by western blotting (FIG. 17b).

Structure (SMILES)	alpha-tubulin detyrosination [1]	reduction of the detyrosinating activity of SVBP-VASH2 complex (SVBP-VASH2 complex)
CC(=O)O[C@H]1C(=O)[C@@]2(C)[C@H]([C@H](OC(=O)c3ccccc3)[C@]3(O)C[C@H](OC(=O)[C@H](O)[C@@H](NC(=O)c4ccccc4)c4ccccc4)C(C)=C1C3(C)C)[C@]1(OC(C)=O)CO[C@@H]1C[C@@H]2O [Taxol, paclitaxel]	robust increase	–
C=C1C(=O)O[C@@H]2C[C@@]3(C)CCC[C@H](C)C3=C[C@H]12 [alantolactone, Alantolactone]	–	did not result in any significant reduction
C=C1C(=O)O[C@@H]2/C=C(\C)CC/C=C(\C)CC[C@@H]12 [costunolide, Costunolide]	–	did not result in any significant reduction

From patent US20210285024A1, “In vitro Screening Assay of TCPase Modulators” (CENTRE NATIONAL DE LA RECHERCHE SCIENTIFIQUE (CNRS), priority 2018, published 2021)
